Results reported in patent publication EP0552417B1, “Cyclic peptides and use thereof” (priority 1991, dated 1993).
Like-named read-outs stand apart in the source and are kept apart here. Non-standard residues stand in square brackets, D forms with d. Residues, ends and D or L forms follow the SMILES beside them. *: point of attachment. NMeW = CN[C@@H](Cc1c[nH]c2ccccc12)C(=O)O; NMeF = CN[C@@H](Cc1ccccc1)C(=O)O; NMeL = CN[C@@H](CC(C)C)C(=O)O; X3 = O=C(Cc1c[nH]c2ccccc12)*; Orn = NCCC[C@H](N)C(=O)O; PhAc = O=C(Cc1ccccc1)*; Sar = CNCC(=O)O

Tests used:
[1] = test system: ETB; experiment: ETB radio receptor assay *2, 125I-endothelin-1, guinea pig kidney crude membrane fraction; type: binding, Guinea pigs; conditions: relative activity, 37 °C, 90 minutes
Procedure: ETB Radio Receptor Assay *2
In the endothelin radio receptor assay, guinea pigs' kidneys were used. Guinea pigs (Std Hartrey, male 250 g, Japan SLC Ltd.) were made to have a cerebral concussion and sacrificed by bleeding from carotid arteries to pick up the kidneys and removed fat therefrom to prepare the kidneys. The obtained kidneys were sliced and homogenized by politron homogenizer in 20 ml of 50 mM Tris-HCl buffer [pH 7.4; 20 mM NaHCO3, 0.1 mM PMSF (Phenylmethylsulfonyl Fluoride), 1 mM EDTA (Ethylenediaminetetraacetic acid)] per one kidney. The homogenized kidney was applied to a centrifugation at 1,000 x g for 15 minutes and the supernatant was further applied to a centrifugation for 20 minutes at 30,000 x g. The resulting precipitate was twice washed with 50 mM Tris-HCl buffer (pH 7.4) containing 0.1 mM PMSF, 1 mM EDTA. The resultant was stored at -80 °C as a crude receptor membrane fraction and was used as the suspension in the following buffer when necessary.
740 Bq of ^125I-endothelin-1 (81.4 TBq/mmol, Du Pont, USA) as a radio ligand, the crude membrane fraction (2.1 µg protein) and samples were added to the following buffer. The reaction was performed at 37 °C, for 90 minutes in 0.2 ml of the buffer [50 mM Tris-HCl buffer (pH 7.4) containing 0.1 mM PMSF, 1 mM EDTA, 0.2% bovine serum albumin].
The reaction was stopped by fast filtration on a glass filter (GF/B, Wattman, USA) by Cell Harvestor (290 PHD, Cambridge-Technology, Great Britain), and the filter was three times washed with 50 mM Tris-HCl buffer (pH 7.4). Radio activity remained on the filter was assayed by a gamma counter.

[2] = molecular target: T1, endothelin receptor A (ETA) (Sus scrofa, UniProt Q29010); experiment: Assay of affinity for receptor (1): binding activity on ETA receptor, 125I-labeled endothelin-1, porcine heart membrane fraction; set-up: key: relative specific activity; reference cyclic pentapeptide ETA binding = 1.0; conditions: specific activity, taking the binding activity of control cyclo[-D-Glu-Ala-D-aIle-Leu-D-Trp-] on receptor A as 1.0, 25°C, 1 hour
T1 construct: A membrane fraction prepared from the porcine heart; from tissue; host or cells: porcine heart membrane fraction
T1 sequence (Q29010 21-427): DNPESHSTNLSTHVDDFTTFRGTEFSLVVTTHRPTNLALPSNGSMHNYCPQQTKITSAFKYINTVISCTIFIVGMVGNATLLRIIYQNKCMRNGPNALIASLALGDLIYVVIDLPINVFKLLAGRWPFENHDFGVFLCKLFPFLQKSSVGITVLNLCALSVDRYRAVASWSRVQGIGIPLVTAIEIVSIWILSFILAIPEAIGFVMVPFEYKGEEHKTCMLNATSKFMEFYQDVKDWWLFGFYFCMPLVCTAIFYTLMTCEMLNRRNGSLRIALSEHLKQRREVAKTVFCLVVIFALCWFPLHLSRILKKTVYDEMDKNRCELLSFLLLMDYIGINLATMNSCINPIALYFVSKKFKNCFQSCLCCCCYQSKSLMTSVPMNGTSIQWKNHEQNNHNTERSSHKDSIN
Procedure: Assay of Affinity for Receptor (1) ... Binding Activity on ETA Receptor
A membrane fraction prepared from the porcine heart was diluted to 0.15 mg/ml by using a buffer solution for assay, and 100 µl of the resulting suspension of the membrane fraction was poured into each assay tube to use for assay. To this suspension of the membrane fraction was added 2 µl of 5 nM ^125I-labeled endothelin-1 solution. Further, 3 µl of a test peptide solution was added thereto, followed by incubation at a temperature of 25°C for 1 hour. Then, the resulting suspension was diluted with 900 µl of the buffer solution for assay cooled with ice, and thereafter separated into a supernatant and a precipitate by centrifugation at 12,000 X g for 10 minutes. Cell membranes and an endothelin receptor A (ETA) embedded therein were contained in the precipitate, and radioactive iodine-labeled endothelin combined with the receptor was also recovered in the precipitate. Accordingly, the amount of radioactive iodine-labeled endothelin combined with the endothelin receptor A (ETA) was determined by measuring the amount of radioactive iodine contained in the precipitate with a gamma-ray counter. The cyclic pentapeptide described in Japanese Patent Application No. 2-413328/1990, cyclo[-D-Glu-Ala-D-aIle-Leu-D-Trp-], was used as a control compound. The numerical value of ETA shown in Table 1 is the value of specific activity, taking the binding activity of this cyclic pentapeptide on the receptor A as 1.0. The binding activity (IC50) of this cyclic pentapeptide on the ETA receptor is 2x10^-6 M.

[3] = amide bond, 18-membered ring, DMF, 4 steps
[4] = HONB/DCC preactivation, TEA, 5.0 mM
[5] = HONB ester (HONB/DCC preactivation)/TEA, 5.0 mM
[6] = HONB/DCC (preformed ONB ester), TEA, 5.0 mM

| Binding Activity on ET Receptor (R. act.) ETB*2 [1] | Binding Activity on ET Receptor (R. act.) ETA [2] | Compound | further results |
| --- | --- | --- | --- |
| 1.0 | 2.6 | CC(C)C[C@@H]1NC(=O)[C@@H](CC(C)C)NC(=O)[C@H]2CCCN2C(=O)[C@H](CC(=O)O)NC(=O)[C@@H](CC(=O)O)NC(=O)[C@@H](Cc2c[nH]c3ccccc23)NC1=O [Example 31, Cyclo[-D-Asp-Asp-D-Pro-D-Leu-Leu-D-Trp-]] (cyclo(D[dP][dL]L[dW][dD])) |  |
| 26 | 2.1 | CC(C)C[C@@H]1NC(=O)[C@@H](CC(C)C)NC(=O)[C@H](CC(=O)O)NC(=O)[C@H](C)NC(=O)[C@@H](CCC(=O)O)NC(=O)[C@@H](Cc2c[nH]c3ccccc23)NC1=O [Example 41, Cyclo[-D-Glu-Ala-Asp-D-Leu-Leu-D-Trp-]] (cyclo(AD[dL]L[dW][dE])) |  |
| 75 | 8.1 | CC(C)C[C@@H]1NC(=O)[C@@H](CC(C)C)NC(=O)[C@H](CC(=O)O)NC(=O)CN(C)C(=O)[C@@H](CC(=O)O)NC(=O)[C@@H](Cc2c[nH]c3ccccc23)NC1=O [Example 46, Cyclo[-D-Asp-Sar-Asp-D-Leu-Leu-D-Trp-]] (cyclo(D[dL]L[dW][dD][Sar])) |  |
| 17 | 6.8 | CC(C)C[C@@H]1NC(=O)[C@@H](CC(C)C)NC(=O)[C@H](CC(=O)O)NC(=O)[C@H](CC(C)C)N(C)C(=O)[C@@H](CC(=O)O)NC(=O)[C@@H](Cc2c[nH]c3ccccc23)NC1=O [Example 47, Cyclo[-D-Asp-N-MeLeu-Asp-D-Leu-Leu-D-Trp-]] (cyclo(D[dL]L[dW][dD][NMeL])) |  |
| 13 | 2.7 | CC(C)C[C@@H]1NC(=O)[C@@H](CC(C)C)NC(=O)[C@H](CC(=O)O)NC(=O)[C@H](Cc2ccccc2)N(C)C(=O)[C@@H](CC(=O)O)NC(=O)[C@@H](Cc2c[nH]c3ccccc23)NC1=O [Example 48, Cyclo[-D-Asp-N-MePhe-Asp-D-Leu-Leu-D-Trp-]] (cyclo(D[dL]L[dW][dD][NMeF])) |  |
| 30 | 9.1 | CC(C)C[C@@H]1NC(=O)[C@@H](CC(C)C)NC(=O)[C@H](CC(=O)O)NC(=O)[C@H](Cc2c[nH]c3ccccc23)N(C)C(=O)[C@@H](CC(=O)O)NC(=O)[C@@H](Cc2c[nH]c3ccccc23)NC1=O [Example 67, Cyclo[-D-Asp-N-MeTrp-Asp-D-Leu-Leu-D-Trp-]] (cyclo(D[dL]L[dW][dD][NMeW])) |  |
| 43 | 15 | CC(C)C[C@@H]1NC(=O)[C@@H](CC(C)C)NC(=O)[C@H](CC(=O)O)NC(=O)[C@H](Cc2c[nH]cn2)NC(=O)[C@@H](CC(=O)O)NC(=O)[C@@H](Cc2c[nH]c3ccccc23)NC1=O [Example 83, Cyclo[-D-Asp-His-Asp-D-Leu-Leu-D-Trp-]] (cyclo(D[dL]L[dW][dD]H)) |  |
| 330 | 110 | CC(C)C[C@@H]1NC(=O)[C@@H](CC(C)C)NC(=O)[C@H](CC(=O)O)NC(=O)[C@H](Cc2c[nH]c3ccccc23)NC(=O)[C@@H](CC(=O)O)NC(=O)[C@@H](Cc2cn(C)c3ccccc23)NC1=O [Example 95, Cyclo[-D-Asp-Trp-Asp-D-Leu-Leu-D-Trp(Me)-]] |  |
|  |  | H-Acbu-Leu-dTrp-dAsp(OBzl)-Trp-Asp(OBzl)-ONB | ring closure, yield after HPLC ([3]; the molecule shown is the open-chain precursor, HONB/DCC (preformed ONB ester), TEA, 5.0 mM): 10.4% |
|  |  | cyclo[-D-Asp-Ala-Asp-D-Leu-Leu-D-Trp-] | ring closure, yield after HPLC [3, 4]: 18.2% |
|  |  | cyclo[-D-Asp-Ala-D-Asp-D-Leu-Leu-D-Trp-] | ring closure, yield after HPLC [3, 4]: 15.3% |
|  |  | cyclo[-D-Asp-Ala-D-Glu-D-Leu-Leu-D-Trp-] | ring closure, yield after HPLC [3, 4]: 10.8% |
|  |  | cyclo[-D-Asp-Ala-Glu-D-Leu-Leu-D-Trp-] | ring closure, yield after HPLC [3, 4]: 24.1% |
|  |  | cyclo[-D-Asp-Asn(CH2CH2-Ind)-Asp-D-Leu-Leu-D-Trp-] | ring closure, yield after HPLC ([3]; HONB/DCC (preactivation), HCl/dioxane, TEA, 3.2 mM): 19.4% |
|  |  | cyclo[-D-Asp-Asn(CH2CH2-Ind)-Asp-D-Thg(2)-Leu-D-Trp-] | ring closure, yield after HPLC ([3]; HONB/DCC preactivation, HCl, TEA, 5.0 mM): 9.5% |
|  |  | cyclo[-D-Asp-Asn(CH2CH2Ph)-Asp-D-Leu-Leu-D-Trp-] | ring closure, yield after HPLC ([3]; HONB/DCC (preactivation), HCl/dioxane, TEA, 3.5 mM): 24.1% |
|  |  | cyclo[-D-Asp-Asn(CH2Ph)-Asp-D-Leu-Leu-D-Trp-] | ring closure, yield after HPLC ([3]; HONB ester (HONB/DCC preactivation)/TEA, 3.5 mM): 23.8% |
|  |  | cyclo[-D-Asp-Asp-Ala-D-Leu-Leu-D-Trp-] | ring closure, yield after HPLC [3, 5]: 17.8% |
|  |  | cyclo[-D-Asp-Gln(Bzl)-Asp-D-Thg(2)-Leu-D-Trp-] | ring closure, yield after HPLC ([3]; HONB/DCC preactivation, HCl, TEA, 5.1 mM): 8.8% |
|  |  | cyclo[-D-Asp-Glu-Ala-D-Leu-Leu-D-Trp-] | ring closure, yield after HPLC [3, 5]: 20.6% |
|  |  | cyclo[-D-Asp-Gly-Ala-D-Leu-Leu-D-Trp-] | ring closure, yield after HPLC ([3]; HONB ester (HONB/DCC preactivation)/TEA, 5.9 mM): 19.2% |
|  |  | cyclo[-D-Asp-Hyp(Bzl)-Asp-D-Thg(2)-Leu-D-Trp-] | ring closure, yield after HPLC [3, 6]: 5.7% |
|  |  | cyclo[-D-Asp-Orn(COCH2-Ind)-Asp-D-Leu-Leu-D-Trp-] | ring closure, yield after HPLC ([3]; HONB/DCC (preformed ONB ester), TEA, 4.9 mM): 12.5% |
|  |  | cyclo[-D-Asp-Orn(COCH2CH2Ph)-Asp-D-Leu-Leu-D-Trp-] | ring closure, yield after HPLC ([3]; HONB/DCC (preformed ONB ester), TEA, 5.1 mM): 40.9% |
|  |  | cyclo[-D-Asp-Orn(COCH2Ph)-Asp-D-Leu-Leu-D-Trp-] | ring closure, yield after HPLC ([3]; HONB/DCC (preformed ONB ester), TEA, 4.7 mM): 2.9% |
|  |  | cyclo[-D-Asp-Orn(COPh)-Asp-D-Leu-Leu-D-Trp-] | ring closure, yield after HPLC [3, 6]: 48.1% |

| Compound | Binding Activity on ET Receptor (R. act.) ETB*2 [1] | Binding Activity on ET Receptor (R. act.) ETA [2] | further results |
| --- | --- | --- | --- |
| CC(C)C[C@@H]1NC(=O)[C@@H](CC(C)C)NC(=O)[C@H](CC(=O)O)NC(=O)[C@H](CCCNC(=O)Cc2ccccc2)NC(=O)[C@@H](CC(=O)O)NC(=O)[C@@H](Cc2c[nH]c3ccccc23)NC1=O [Example 80, cyclo[-D-Asp-Orn(COCH2Ph)-Asp-D-Leu-Leu-D-Trp-]] (cyclo(D[dL]L[dW][dD][Orn](PhAc))) | 380 | 260 |  |
| CC(C)C[C@@H]1NC(=O)[C@@H](CC(C)C)NC(=O)[C@H](CC(=O)O)NC(=O)[C@H](CCCNC(=O)Cc2c[nH]c3ccccc23)NC(=O)[C@@H](CC(=O)O)NC(=O)[C@@H](Cc2c[nH]c3ccccc23)NC1=O [Example 82, cyclo[-D-Asp-Orn(COCH2-Ind)-Asp-D-Leu-Leu-D-Trp-]] (cyclo(D[dL]L[dW][dD][Orn](X3))) | 500 | 240 |  |
